# Source: ChEMBL document CHEMBL5113500, “New brefeldin A-cinnamic acid ester derivatives as potential antitumor agents: Design, synthesis and biological evaluation” (Eur J Med Chem, 2022)
# Calls of active or inactive are those of the source. The rule behind the calls is not given here.
# What was measured:
# Bel-7402 [1] = assay: Cell cycle arrest in human Bel-7402 cells assessed as accumulation at G1 phase at 1 uM measured after 24 hrs by propidium iodide staining based flow cytometry (reference value: 38.72%); assay type: functional
# HepG2 [2] = assay: Induction of apoptosis in human HepG2 cells assessed as late apoptotic cells at 0.2 uM measured after 48 hrs by Annexin V-FITC/propidium iodide staining based flow cytometry (reference value: 1.66%); assay type: functional
# HepG2 [3] = assay: Induction of apoptosis in human HepG2 cells assessed as early apoptotic cells at 0.2 uM measured after 48 hrs by Annexin V-FITC/propidium iodide staining based flow cytometry (reference value: 1.81%); assay type: functional
# HepG2 [4] = assay: Induction of apoptosis in human HepG2 cells assessed as viable cells at 0.2 uM measured after 48 hrs by Annexin V-FITC/propidium iodide staining based flow cytometry (reference value: 94.5%); assay type: functional; conditions: read-out: Activity
# HepG2 [5] = assay: Antiproliferative activity against human HepG2 cells assessed as cell growth inhibition at 1 uM measured after 72 hrs by MTT assay relative to control; assay type: functional; conditions: read-out: GI
# Bel-7402 [6] = assay: Antiproliferative activity against human Bel-7402 cells measured after 72 hrs by MTT assay; assay type: functional, cell-based; conditions: Bel-7402, 72 h
# HeLa = assay: Antiproliferative activity against human HeLa cells measured after 72 hrs by MTT assay; assay type: functional, cell-based
# [7] = Cytotoxicity against human L02 cells measured after 72 hrs by MTT assay; assay type: toxicity, cell-based
# [8] = Solubility of the compound in 5% DMSO and 10% Solutol HS-15 saline solution; assay type: physicochemical
# HepG2 [9] = assay: Inhibition of colony formation in human HepG2 cells at 0.4 to 0.8 uM treated every 3 days for 14 days by crystal violet staining based assay; assay type: functional, cell-based; conditions: dose 0.4-0.8 µM, time 14.0 day
# HepG2 [10] = assay: Cell cycle arrest in human HepG2 cells assessed as accumulation at G2/M phase at 0.2 uM measured after 24 hrs by propidium iodide staining based flow cytometry (reference value: 19.93%); assay type: functional
# Bel-7402 [11] = assay: Cell cycle arrest in human Bel-7402 cells assessed as accumulation at G1 phase at 0.5 uM measured after 24 hrs by propidium iodide staining based flow cytometry (reference value: 38.72%); assay type: functional
# Bel-7402 [12] = assay: Cell cycle arrest in human Bel-7402 cells assessed as accumulation at S phase at 0.5 uM measured after 24 hrs by propidium iodide staining based flow cytometry (reference value: 31%); assay type: functional
# Bel-7402 [13] = assay: Cell cycle arrest in human Bel-7402 cells assessed as accumulation at G2/M phase at 0.5 uM measured after 24 hrs by propidium iodide staining based flow cytometry (reference value: 30.29%); assay type: functional
# Bel-7402 [14] = assay: Cell cycle arrest in human Bel-7402 cells assessed as accumulation at G2/M phase at 1 uM measured after 24 hrs by propidium iodide staining based flow cytometry (reference value: 30.29%); assay type: functional
# HepG2 [15] = assay: Cell cycle arrest in human HepG2 cells assessed as accumulation at G1 phase at 0.8 uM measured after 24 hrs by propidium iodide staining based flow cytometry (reference value: 42.27%); assay type: functional
# HepG2 [16] = assay: Cell cycle arrest in human HepG2 cells assessed as accumulation at S phase at 0.8 uM measured after 24 hrs by propidium iodide staining based flow cytometry (reference value: 32.81%); assay type: functional
# Bel-7402 [17] = assay: Cell cycle arrest in human Bel-7402 cells assessed as accumulation at G1 phase at 2 uM measured after 24 hrs by propidium iodide staining based flow cytometry (reference value: 38.72%); assay type: functional
# Bel-7402 [18] = assay: Cell cycle arrest in human Bel-7402 cells assessed as accumulation at G2/M phase at 2 uM measured after 24 hrs by propidium iodide staining based flow cytometry (reference value: 30.29%); assay type: functional
# HepG2 [19] = assay: Induction of apoptosis in human HepG2 cells assessed as viable cells at 0.4 uM measured after 48 hrs by Annexin V-FITC/propidium iodide staining based flow cytometry (reference value: 94.5%); assay type: functional; conditions: read-out: Activity
# HepG2 [20] = assay: Induction of apoptosis in human HepG2 cells assessed as necrotic cells at 0.4 uM measured after 48 hrs by Annexin V-FITC/propidium iodide staining based flow cytometry (reference value: 2.04%); assay type: functional
# HepG2 [21] = assay: Induction of apoptosis in human HepG2 cells assessed as viable cells at 0.8 uM measured after 48 hrs by Annexin V-FITC/propidium iodide staining based flow cytometry (reference value: 94.5%); assay type: functional; conditions: read-out: Activity
# HepG2 [22] = assay: Induction of apoptosis in human HepG2 cells assessed as necrotic cells at 0.8 uM measured after 48 hrs by Annexin V-FITC/propidium iodide staining based flow cytometry (reference value: 2.04%); assay type: functional
# HepG2 [23] = assay: Induction of ROS generation in human HepG2 cells measured after 48 hrs by DCFH-DA probe based fluorescence microscopy; assay type: functional, cell-based; conditions: dose 0.2-0.8 µM, DDE = dose-dependent effect
# [24] = Acute toxicity in ICR mouse assessed as change in ALT level at 100 mg/kg, ip measured after 6 days; assay type: organism-based; conditions: in vivo, 144 h, time 6 day
# [25] = Acute toxicity in ICR mouse assessed as change in creatinine level at 100 mg/kg, ip measured after 6 days; assay type: organism-based; conditions: in vivo, 144 h, time 6 day
# [26] = Acute toxicity in ICR mouse assessed as change in uric acid level at 100 mg/kg, ip measured after 6 days; assay type: organism-based; conditions: in vivo, 144 h, time 6 day
# [27] = Acute toxicity in ICR mouse assessed as pathological change in kidney at 100 mg/kg, ip measured after 6 days; assay type: organism-based; conditions: in vivo, 144 h, time 6 day
# [28] = Acute toxicity in ICR mouse assessed as pathological change in liver at 100 mg/kg, ip measured after 6 days; assay type: organism-based; conditions: in vivo, 144 h, time 6 day
# [29] = Acute toxicity in ICR mouse assessed as pathological change in lung at 100 mg/kg, ip measured after 6 days; assay type: organism-based; conditions: in vivo, 144 h, time 6 day
# [30] = MRT (0 to t) in ICR mouse at 10 mg/kg, iv; assay type: ADME, organism-based; conditions: in vivo
# [31] = Volume of distribution at steady state in ICR mouse at 10 mg/kg, iv; assay type: ADME, organism-based; conditions: in vivo, read-out: Vdss
# HepG2 [32] = assay: Antitumor activity against human HepG2 cells xenografted in BALB/c nude mouse assessed as tumor growth inhibition at 10 mg/kg, ip administered once daily for 16 days relative to control; assay type: functional; conditions: HepG2, 384 h, time 16 day, read-out: TGI
# [33] = Toxicity in human HepG2 cells xenografted BALB/c nude mouse assessed as change in body weight at 5 to 10 mg/kg, ip administered once daily for 16 days measured 3 times per week during compound dosing; assay type: organism-based; conditions: in vivo, 384 h, dose 5-10 mg/kg, time 16 day
# HepG2 [34] = assay: Antitumor activity against human HepG2 cells xenografted in BALB/c nude mouse assessed as reduction in tumor weight at 5 to 10 mg/kg, ip administered once daily for 16 days measured post-last dose; assay type: functional, organism-based; conditions: dose 5-10 mg/kg, time 16.0 day
# HepG2 [35] = assay: Antitumor activity against human HepG2 cells xenografted in BALB/c nude mouse assessed as reduction in Ki-67 expression at 5 to 10 mg/kg, ip administered once daily for 16 days measured post-last dose by immunohistochemical analysis; assay type: functional, organism-based; conditions: dose 5-10 mg/kg, time 16.0 day
# HepG2 [36] = assay: Antitumor activity against human HepG2 cells xenografted in BALB/c nude mouse assessed as increase in cleaved caspase-3 expression at 5 to 10 mg/kg, ip administered once daily for 16 days measured post-last dose by immunohistochemical analysis; assay type: functional, organism-based; conditions: dose 5-10 mg/kg, time 16.0 day
smiles,measurement,setting,value
C[C@H]1CCC/C=C/[C@@H]2C[C@H](O)C[C@H]2[C@H](OC(=O)/C=C/c2ccc(N(C)C)cc2)/C=C/C(=O)O1,Activity,Bel-7402 [1],54.21%
same,Activity,HepG2 [2],3.05%
same,Activity,HepG2 [3],2.03%
same,viability at 0.2 µM,HepG2 [4],66.1%
same,inhibition of growth at 1 µM,HepG2 [5],92.1%
same,IC50,Bel-7402 [6],840 nM
same,IC50,HeLa,860 nM
same,IC50 at 72 h,[7],2810 nM
same,solubility,[8],2500 µg/mL
same,inhibition,HepG2 [9],Active
same,Activity,HepG2 [10],22.32%
same,Activity,Bel-7402 [11],51.26%
same,Activity,Bel-7402 [12],21.14%
same,Activity,Bel-7402 [13],27.62%
same,Activity,Bel-7402 [14],26.22%
same,Activity,HepG2 [15],60.9%
same,Activity,HepG2 [16],23.25%
same,Activity,Bel-7402 [17],60.5%
same,Activity,Bel-7402 [18],18.82%
same,viability at 0.4 µM,HepG2 [19],53.1%
same,Activity,HepG2 [20],41.57%
same,viability at 0.8 µM,HepG2 [21],54.4%
same,Activity,HepG2 [22],39.85%
same,Activity,HepG2 [23],Dde
same,Activity,[24],Non-Toxic
same,Activity,[25],Non-Toxic
same,Activity,[26],Non-Toxic
same,Activity,[27],Non-Toxic
same,Activity,[28],Non-Toxic
same,Activity,[29],Non-Toxic
same,MRT last,[30],19.2 min
same,Vd,[31],0.852 L/kg
same,inhibition in vivo at 10 mg/kg,HepG2 [32],46.2%
same,Activity,[33],Non-Toxic
same,Activity,HepG2 [34],Active
same,Activity,HepG2 [35],Active
same,Activity,HepG2 [36],Active
